Patent US12252701B2, “Chimeric antigen receptor T cell therapy” (KITE PHARMA, INC., priority 2020, dated 2025)
Where two headings read alike, the source gives them in different places.

How the values were obtained:
CD19 CAR T cells = assay: CAR T cell cytokine production (Luminex) under CD19 K562, KIP-1 or CD2/3/28 stimulation; conditions: 72 h; for IC50: Homo sapiens, T-cell; for Suppression of cytokine production, IFNg (IC50) / Suppression of cytokine production, IL-6 (IC50): K562-CD19 stimulation
Protocol: Cryopreserved healthy donor CLP CD19 CAR T cells were thawed and rested overnight in 100 U/ml of IL-2 at 1×10^6/ml. 2.5×10^5 CD19 CART cells were plated in 96-well RB plate wells in a total volume of 200 μl of R10 culture media. […] CD19 CART cell cytokine production was allowed to proceed through 72 hours in the presence of stimulator and JAKi or steroid. Following 72 h of culture, 100 μl of the cell supernatant of each well were harvested and stored at −80° C. for later Luminex/Bioplex-200 cytokine analysis. Briefly, stored supernatants were thawed and 50 μl of the sample was assayed for cytokines using a ThermoFisher Procarta Plex 19-plex human cytokine assay kit (ThermoFisher, Carlsbad, CA) according to kit manufacturer's instructions and detected using a BioRad Bioplex-200 instrument. The data points generated from the luminex cytokine assay were transferred to a GraphPad PRISM IC50 dose-response curve analysis to generate IC50 or potency values for the JAKi's and steroids tested.

CAR-T cells = assay: CAR-T cell expansion assay (KIP-1 or CD3/CD28 stimulation); conditions: for % viabili.: CD3/CD28 stimulation; for % viabi.: KIP-1 stimulation
[1] = cited from earlier work
Nalm-6 luc = assay: CAR-T cell killing assay (luciferase viability of tumor cells)

N#CCC1(n2cc(-c3ncnc4[nH]ccc34)cn2)CN(C2CCN(C(=O)c3ccnc(C(F)(F)F)c3F)CC2)C1 [itacitinib]
IC50 (CD19 CAR T cells; read-out: Suppression of cytokine production, GMCSF (IC50), CD3/CD28 stimulation, 72 h): < 100 nM
IC50 (CD19 CAR T cells; read-out: Suppression of cytokine production, GMCSF (IC50), K562-CD19 stimulation, 72 h): 377 nM
IC50 (CD19 CAR T cells; read-out: Suppression of cytokine production, GMCSF (IC50), KIP-1 stimulation, 72 h): 273 nM
IC50 (CD19 CAR T cells; read-out: Suppression of cytokine production, GzB (IC50), CD3/CD28 stimulation, 72 h): 2740 nM
IC50 (CD19 CAR T cells; read-out: Suppression of cytokine production, GzB (IC50), K562-CD19 stimulation, 72 h): > 10000 nM
IC50 (CD19 CAR T cells; read-out: Suppression of cytokine production, GzB (IC50), KIP-1 stimulation, 72 h): > 10000 nM
IC50 (CD19 CAR T cells; read-out: Suppression of cytokine production, IFNg (IC50), CD3/CD28 stimulation, 72 h): > 10000 nM
IC50 (CD19 CAR T cells; read-out: Suppression of cytokine production, IFNg (IC50), KIP-1 stimulation, 72 h): > 10000 nM
IC50 (CD19 CAR T cells; read-out: Suppression of cytokine production, IL-2Ra (IC50), CD3/CD28 stimulation, 72 h): 144 nM
IC50 (CD19 CAR T cells; read-out: Suppression of cytokine production, IL-2Ra (IC50), K562-CD19 stimulation, 72 h): < 100 nM
IC50 (CD19 CAR T cells; read-out: Suppression of cytokine production, IL-2Ra (IC50), KIP-1 stimulation, 72 h): < 100 nM
IC50 (CD19 CAR T cells; read-out: Suppression of cytokine production, IL-6 (IC50), CD3/CD28 stimulation, 72 h): < 100 nM
IC50 (CD19 CAR T cells; read-out: Suppression of cytokine production, IL-6 (IC50), KIP-1 stimulation, 72 h): 1970 nM
IC50 (CD19 CAR T cells; read-out: Suppression of cytokine production, IL-8 (IC50), CD3/CD28 stimulation, 72 h): < 100 nM
IC50 (CD19 CAR T cells; read-out: Suppression of cytokine production, IL-8 (IC50), K562-CD19 stimulation, 72 h): < 100 nM
IC50 (CD19 CAR T cells; read-out: Suppression of cytokine production, IL-8 (IC50), KIP-1 stimulation, 72 h): < 100 nM
IC50 (CD19 CAR T cells; read-out: Suppression of cytokine production, IL-10 (IC50), CD3/CD28 stimulation, 72 h): < 100 nM
IC50 (CD19 CAR T cells; read-out: Suppression of cytokine production, IL-10 (IC50), K562-CD19 stimulation, 72 h): < 100 nM
IC50 (CD19 CAR T cells; read-out: Suppression of cytokine production, IL-10 (IC50), KIP-1 stimulation, 72 h): < 100 nM
IC50 (CD19 CAR T cells; read-out: Suppression of cytokine production, MCP-1 (IC50), CD3/CD28 stimulation, 72 h): < 100 nM
IC50 (CD19 CAR T cells; read-out: Suppression of cytokine production, MCP-1 (IC50), K562-CD19 stimulation, 72 h): < 100 nM
IC50 (CD19 CAR T cells; read-out: Suppression of cytokine production, MCP-1 (IC50), KIP-1 stimulation, 72 h): 2580 nM
IC50 (CD19 CAR T cells; read-out: Suppression of cytokine production, MIG (IC50), CD3/CD28 stimulation, 72 h): 549 nM
IC50 (CD19 CAR T cells; read-out: Suppression of cytokine production, MIG (IC50), K562-CD19 stimulation, 72 h): < 100 nM
IC50 (CD19 CAR T cells; read-out: Suppression of cytokine production, MIG (IC50), KIP-1 stimulation, 72 h): < 100 nM
IC50 (CD19 CAR T cells; read-out: Suppression of cytokine production, MIP-1a (IC50), CD3/CD28 stimulation, 72 h): 361 nM
IC50 (CD19 CAR T cells; read-out: Suppression of cytokine production, MIP-1a (IC50), K562-CD19 stimulation, 72 h): 167 nM
IC50 (CD19 CAR T cells; read-out: Suppression of cytokine production, MIP-1a (IC50), KIP-1 stimulation, 72 h): 1420 nM
IC50 (CD19 CAR T cells; read-out: Suppression of cytokine production, MIP-1b (IC50), CD3/CD28 stimulation, 72 h): < 100 nM
IC50 (CD19 CAR T cells; read-out: Suppression of cytokine production, MIP-1b (IC50), K562-CD19 stimulation, 72 h): 149 nM
IC50 (CD19 CAR T cells; read-out: Suppression of cytokine production, MIP-1b (IC50), KIP-1 stimulation, 72 h): 553 nM
IC50 (CD19 CAR T cells; read-out: Suppression of cytokine production, Perforin (IC50), CD3/CD28 stimulation, 72 h): 1600 nM
IC50 (CD19 CAR T cells; read-out: Suppression of cytokine production, Perforin (IC50), K562-CD19 stimulation, 72 h): < 100 nM
IC50 (CD19 CAR T cells; read-out: Suppression of cytokine production, Perforin (IC50), KIP-1 stimulation, 72 h): 431 nM
IC50 (CD19 CAR T cells; read-out: Suppression of cytokine production, TNFa (IC50), CD3/CD28 stimulation, 72 h): < 100 nM
IC50 (CD19 CAR T cells; read-out: Suppression of cytokine production, TNFa (IC50), K562-CD19 stimulation, 72 h): < 100 nM
IC50 (CD19 CAR T cells; read-out: Suppression of cytokine production, TNFa (IC50), KIP-1 stimulation, 72 h): 320 nM
Suppression of cytokine production, IFNg (IC50) (CD19 CAR T cells): Suppress
Suppression of cytokine production, IL-6 (IC50) (CD19 CAR T cells): Suppress

C[C@@H]1CCN(C(=O)CC#N)C[C@@H]1N(C)c1ncnc2[nH]ccc12 [tofacitinib]
% viabili. (CAR-T cells; 10 nM, Day 0): 84%
% viabili. (CAR-T cells; 10 nM, Day 4): 70.8%
% viabili. (CAR-T cells; 10 nM, Day 8): 80.9%
% viabili. (CAR-T cells; 10 nM, Day 12): 82.9%
% viabili. (CAR-T cells; 20 nM, Day 0): 84%
% viabili. (CAR-T cells; 20 nM, Day 4): 81.1%
% viabili. (CAR-T cells; 20 nM, Day 8): 70.1%
% viabili. (CAR-T cells; 20 nM, Day 12): 79.5%
% viabili. (CAR-T cells; 40 nM, Day 0): 84%
% viabili. (CAR-T cells; 40 nM, Day 4): 89.2%
% viabili. (CAR-T cells; 40 nM, Day 8): 73.5%
% viabili. (CAR-T cells; 40 nM, Day 12): 74.8%
% viabili. (CAR-T cells; 60 nM, Day 0): 84%
% viabili. (CAR-T cells; 60 nM, Day 4): 93.1%
% viabili. (CAR-T cells; 60 nM, Day 8): 86.6%
% viabili. (CAR-T cells; 60 nM, Day 12): 74.5%
% viabili. (CAR-T cells; 80 nM, Day 0): 84%
% viabili. (CAR-T cells; 80 nM, Day 4): 91.7%
% viabili. (CAR-T cells; 80 nM, Day 8): 86.3%
% viabili. (CAR-T cells; 80 nM, Day 12): 77%
% viabili. (CAR-T cells; 100 nM, Day 0): 84%
% viabili. (CAR-T cells; 100 nM, Day 4): 94.3%
% viabili. (CAR-T cells; 100 nM, Day 8): 85.5%
% viabili. (CAR-T cells; 100 nM, Day 12): 73.9%
% viabi. (CAR-T cells; 10 nM, Day 0): 84%
% viabi. (CAR-T cells; 10 nM, Day 4): 77.9%
% viabi. (CAR-T cells; 10 nM, Day 8): 61.2%
% viabi. (CAR-T cells; 10 nM, Day 12): 85.2%
% viabi. (CAR-T cells; 20 nM, Day 0): 84%
% viabi. (CAR-T cells; 20 nM, Day 4): 84.7%
% viabi. (CAR-T cells; 20 nM, Day 8): 64.9%
% viabi. (CAR-T cells; 20 nM, Day 12): 79.3%
% viabi. (CAR-T cells; 40 nM, Day 0): 84%
% viabi. (CAR-T cells; 40 nM, Day 4): 84.3%
% viabi. (CAR-T cells; 40 nM, Day 8): 77.5%
% viabi. (CAR-T cells; 40 nM, Day 12): 76%
% viabi. (CAR-T cells; 60 nM, Day 0): 84%
% viabi. (CAR-T cells; 60 nM, Day 4): 82.3%
% viabi. (CAR-T cells; 60 nM, Day 8): 70.2%
% viabi. (CAR-T cells; 60 nM, Day 12): 76.1%
% viabi. (CAR-T cells; 80 nM, Day 0): 84%
% viabi. (CAR-T cells; 80 nM, Day 4): 81.8%
% viabi. (CAR-T cells; 80 nM, Day 8): 69.7%
% viabi. (CAR-T cells; 80 nM, Day 12): 73.4%
% viabi. (CAR-T cells; 100 nM, Day 0): 84%
% viabi. (CAR-T cells; 100 nM, Day 4): 73.2%
% viabi. (CAR-T cells; 100 nM, Day 8): 72.7%
% viabi. (CAR-T cells; 100 nM, Day 12): 79.4%
effect on T cell expansion (CAR-T cells; at the doses tested (Table 40)): moderate effects
impacts on expansion in further dose titrations (CAR-T cells; compared with upadacitinib and baricitinib): less severe in comparison
Suppression of cytokine production, IFNg (IC50) (CD19 CAR T cells): Suppress
Suppression of cytokine production, IL-6 (IC50) (CD19 CAR T cells): Suppress
Cmax ([1]; human, in vivo): 58 ng/mL
Protein binding ([1]; plasma protein binding, reported): 40%
Mean tumor cell death (%) (Nalm-6 luc; E:T ratio 1:1, dose 10 nM): 98.6%
Mean tumor cell death (%) (Nalm-6 luc; E:T ratio 1:1, dose 20 nM): 98.4%
Mean tumor cell death (%) (Nalm-6 luc; E:T ratio 1:1, dose 40 nM): 96.1%
Mean tumor cell death (%) (Nalm-6 luc; E:T ratio 1:1, dose 60 nM): 97.9%
Mean tumor cell death (%) (Nalm-6 luc; E:T ratio 1:1, dose 80 nM): 98%
Mean tumor cell death (%) (Nalm-6 luc; E:T ratio 1:1, dose 100 nM): 97.2%
Mean tumor cell death (%) (Nalm-6 luc; E:T ratio 1:3, dose 10 nM): 83.2%
Mean tumor cell death (%) (Nalm-6 luc; E:T ratio 1:3, dose 20 nM): 87.3%
Mean tumor cell death (%) (Nalm-6 luc; E:T ratio 1:3, dose 40 nM): 85.5%
Mean tumor cell death (%) (Nalm-6 luc; E:T ratio 1:3, dose 60 nM): 75.7%
Mean tumor cell death (%) (Nalm-6 luc; E:T ratio 1:3, dose 80 nM): 66.6%
Mean tumor cell death (%) (Nalm-6 luc; E:T ratio 1:3, dose 100 nM): 46.8%
Mean tumor cell death (%) (Nalm-6 luc; E:T ratio 1:9, dose 10 nM): 37%
Mean tumor cell death (%) (Nalm-6 luc; E:T ratio 1:9, dose 20 nM): 28.9%
Mean tumor cell death (%) (Nalm-6 luc; E:T ratio 1:9, dose 40 nM): 36%
Mean tumor cell death (%) (Nalm-6 luc; E:T ratio 1:9, dose 60 nM): 40.5%
Mean tumor cell death (%) (Nalm-6 luc; E:T ratio 1:9, dose 80 nM): 28.2%
Mean tumor cell death (%) (Nalm-6 luc; E:T ratio 1:9, dose 100 nM): 25.6%
